In ChEMBL document CHEMBL5257037, “Side Chain Cyclized Aromatic Amino Acids: Great Tools as Local Constraints in Peptide and Peptidomimetic Design” (J Med Chem, 2016):

target: T1, Angiotensin-converting enzyme (Rattus norvegicus) (UniProt P47820); test: In vivo inhibition of ACE in iv dosed rat assessed as inhibition of Ang1 induced pressor response; assay type: functional, organism-based
T1 sequence (whole entry): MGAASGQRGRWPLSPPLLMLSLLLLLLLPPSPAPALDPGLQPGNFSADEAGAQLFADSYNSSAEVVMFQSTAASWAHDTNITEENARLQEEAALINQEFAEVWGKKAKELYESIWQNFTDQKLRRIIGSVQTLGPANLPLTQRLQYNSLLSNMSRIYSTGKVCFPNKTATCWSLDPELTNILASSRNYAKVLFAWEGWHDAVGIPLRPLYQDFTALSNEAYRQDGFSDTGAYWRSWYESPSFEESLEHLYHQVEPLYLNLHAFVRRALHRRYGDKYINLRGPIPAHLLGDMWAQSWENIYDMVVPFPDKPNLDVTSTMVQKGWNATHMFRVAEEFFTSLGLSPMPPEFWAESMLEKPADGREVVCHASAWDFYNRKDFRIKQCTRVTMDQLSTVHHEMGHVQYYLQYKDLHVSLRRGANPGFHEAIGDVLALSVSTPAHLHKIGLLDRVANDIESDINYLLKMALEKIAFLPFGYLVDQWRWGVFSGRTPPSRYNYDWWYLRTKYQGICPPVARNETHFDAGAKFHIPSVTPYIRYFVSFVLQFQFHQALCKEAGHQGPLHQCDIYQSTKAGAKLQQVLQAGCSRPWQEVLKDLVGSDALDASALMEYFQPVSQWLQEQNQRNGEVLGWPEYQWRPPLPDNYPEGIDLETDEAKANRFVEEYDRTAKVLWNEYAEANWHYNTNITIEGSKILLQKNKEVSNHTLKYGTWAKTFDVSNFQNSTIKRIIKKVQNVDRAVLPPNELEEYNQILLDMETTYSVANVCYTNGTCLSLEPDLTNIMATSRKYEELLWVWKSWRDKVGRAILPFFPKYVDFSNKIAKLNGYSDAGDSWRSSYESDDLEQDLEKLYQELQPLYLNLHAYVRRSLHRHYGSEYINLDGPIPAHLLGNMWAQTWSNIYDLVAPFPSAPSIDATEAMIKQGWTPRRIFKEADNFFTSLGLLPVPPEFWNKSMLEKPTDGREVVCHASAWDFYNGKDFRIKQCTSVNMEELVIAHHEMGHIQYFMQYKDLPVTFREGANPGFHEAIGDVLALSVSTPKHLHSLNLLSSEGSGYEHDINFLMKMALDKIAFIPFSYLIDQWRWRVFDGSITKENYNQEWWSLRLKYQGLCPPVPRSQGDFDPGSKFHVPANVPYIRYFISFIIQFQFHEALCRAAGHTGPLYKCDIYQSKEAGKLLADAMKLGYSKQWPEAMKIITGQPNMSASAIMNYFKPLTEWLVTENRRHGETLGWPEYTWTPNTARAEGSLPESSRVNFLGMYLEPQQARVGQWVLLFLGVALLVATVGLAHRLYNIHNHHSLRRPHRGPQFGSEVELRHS

| ED50 | SMILES |
| --- | --- |
| 0.15 µmol/kg | C[C@H](NC(=O)[C@@H](CS)Cc1ccccc1)C(=O)N1c2ccccc2C[C@H]1C(=O)O |
| 0.5 µmol/kg | C[C@H](NC(=O)[C@@H](CS)Cc1ccccc1)C(=O)N1CCC[C@H]1C(=O)O |

Second part, the molecule before the results:

| SMILES | ED50 |
| --- | --- |
| C[C@H](NC(=O)[C@@H](S)Cc1ccccc1)C(=O)N1CCC[C@H]1C(=O)O | 0.06 µmol/kg |
| C[C@H](NC(=O)[C@@H](CS)Cc1ccccc1)C(=O)N1Cc2ccccc2C[C@H]1C(=O)O | 0.57 µmol/kg |
| O=C(O)CN1C(=O)[C@@H](NC(=O)[C@@H](S)Cc2ccccc2)CCc2ccccc21 | 0.02 µmol/kg |

target: T2, B2 bradykinin receptor (Homo sapiens) (UniProt P30411); test: Inhibition of B2 bradykinin receptor (unknown origin) at 10 mM relative to control
T2 sequence (whole entry): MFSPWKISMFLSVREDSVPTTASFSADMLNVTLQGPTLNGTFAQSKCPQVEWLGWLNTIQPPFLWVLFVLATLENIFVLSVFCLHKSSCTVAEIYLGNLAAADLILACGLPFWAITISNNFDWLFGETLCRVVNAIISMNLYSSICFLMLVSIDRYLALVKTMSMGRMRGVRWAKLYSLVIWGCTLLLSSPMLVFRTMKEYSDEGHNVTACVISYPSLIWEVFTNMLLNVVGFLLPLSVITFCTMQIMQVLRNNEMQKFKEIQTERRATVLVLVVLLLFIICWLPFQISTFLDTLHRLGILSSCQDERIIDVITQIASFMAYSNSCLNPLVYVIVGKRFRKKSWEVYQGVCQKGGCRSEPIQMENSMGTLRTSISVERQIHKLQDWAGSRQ

| inhibition | SMILES |
| --- | --- |
| 54% | C[C@@H](C(=O)N[C@@H](CCCNC(=N)N)C(=O)O)N1Cc2ccccc2C[C@@H](NC(=O)[C@H](CO)NC(=O)[C@H](Cc2ccccc2)NC(=O)CNC(=O)[C@@H]2CCCN2C(=O)[C@@H]2CCCN2C(=O)[C@@H](N)CCCNC(=N)N)C1=O |
